Assay results published in patent US20260042731A1, “(2,4-DICHLOROPHENOXY)ACETIC ACID ANALOGS” (CORTEVA AGRISCIENCE LLC, priority 2022, published 2026).
Read-outs that look alike come from different tables or passages of the source.

What was measured:
Type in all cases: in vivo
[1] = tested on: Amaranthus rudis (AMATA), tall water hemp; test: Postemergence herbicide evaluation, growth of Amaranthus rudis (AMATA); details: Amaranthus tuberculatus, post-emergence, read-out: Ave. AMATA, percent reduction in plant size relative to the untreated control; for pest or weed control at 280 g/ha: 280 g ae/ha; for pest or weed control at 560 g/ha: 560 g ae/ha
[2] = tested on: Ambrosia artemisiifolia (AMBEL), common ragweed; test: Postemergence herbicide evaluation, growth of Ambrosia artemisiifolia (AMBEL); details: Ambrosia artemisiifolia, post-emergence, read-out: AVE. AMBEL, percent reduction in plant size relative to the untreated control; for pest or weed control at 280 g/ha: 280 g ae/ha; for pest or weed control at 560 g/ha: 560 g ae/ha
[3] = tested on: Abutilon theophrasti (ABUTH), velvetleaf; test: Postemergence herbicide evaluation, growth of Abutilon theophrasti (ABUTH); details: Abutilon theophrasti, post-emergence, read-out: AVE. ABUTH, percent reduction in plant size relative to the untreated control; for pest or weed control at 280 g/ha: 280 g ae/ha; for pest or weed control at 560 g/ha: 560 g ae/ha
[4] = tested on: Chenopodium album (CHEAL), common lambsquarters; test: Postemergence herbicide evaluation, growth of Chenopodium album (CHEAL); details: Chenopodium album, post-emergence, read-out: Ave. CHEAL, percent reduction in plant size relative to the untreated control; for pest or weed control at 280 g/ha: 280 g ae/ha; for pest or weed control at 560 g/ha: 560 g ae/ha
[5] = tested on: glyphosate resistant Conyza canadensis (L.) (ERICA), horseweed; test: Postemergence herbicide evaluation, growth of Conyza canadensis (ERICA); details: Erigeron canadensis, post-emergence, read-out: Ave. ERICA, percent reduction in plant size relative to the untreated control; for pest or weed control at 280 g/ha: 280 g ae/ha; for pest or weed control at 560 g/ha: 560 g ae/ha
[6] = tested on: weeds ABUTH, AMATA, AMBEL, CHEAL, ERICA; test: Postemergence herbicide evaluation, overall average % weed control (ABUTH, AMATA, AMBEL, CHEAL, ERICA); details: post-emergence, read-out: Overall Ave % Weed Control; for pest or weed control at 280 g/ha: 280 g ae/ha; for pest or weed control at 560 g/ha: 560 g ae/ha

## O=C(COc1ccc(Cl)cc1Cl)Nc1c(Cl)c(F)nc(F)c1Cl [Compound D25]
[1]; 168 h, 7 DAA
  pest or weed control at 280 g/ha: 5%
  pest or weed control at 560 g/ha: 7.5%
[1]; 336 h, 14 DAA
  pest or weed control at 280 g/ha: 15%
  pest or weed control at 560 g/ha: 25%
[1]; 504 h, 21 DAA
  pest or weed control at 280 g/ha: 5%
  pest or weed control at 560 g/ha: 2.5%
[2]; 168 h, 7 DAA
  pest or weed control at 280 g/ha: 35%
  pest or weed control at 560 g/ha: 40%
[2]; 336 h, 14 DAA
  pest or weed control at 280 g/ha: 15%
  pest or weed control at 560 g/ha: 7.5%
[2]; 504 h, 21 DAA
  pest or weed control at 280 g/ha: 10%
  pest or weed control at 560 g/ha: 7.5%
[3]; 168 h, 7 DAA
  pest or weed control at 280 g/ha: 0%
  pest or weed control at 560 g/ha: 3.5%
[3]; 336 h, 14 DAA
  pest or weed control at 280 g/ha: 0%
  pest or weed control at 560 g/ha: 0%
[3]; 504 h, 21 DAA
  pest or weed control at 280 g/ha: 0%
  pest or weed control at 560 g/ha: 2.5%
[4]; 168 h, 7 DAA
  pest or weed control at 280 g/ha: 35%
  pest or weed control at 560 g/ha: 45%
[4]; 336 h, 14 DAA
  pest or weed control at 280 g/ha: 0%
  pest or weed control at 560 g/ha: 7.5%
[4]; 504 h, 21 DAA
  pest or weed control at 280 g/ha: 12.5%
  pest or weed control at 560 g/ha: 15%
[5]; 168 h, 7 DAA
  pest or weed control at 280 g/ha: 7.5%
  pest or weed control at 560 g/ha: 10%
[5]; 336 h, 14 DAA
  pest or weed control at 280 g/ha: 20%
  pest or weed control at 560 g/ha: 12.5%
[5]; 504 h, 21 DAA
  pest or weed control at 280 g/ha: 10%
  pest or weed control at 560 g/ha: 12.5%
[6]; 168 h, 7 DAA
  pest or weed control at 280 g/ha: 16.5%
  pest or weed control at 560 g/ha: 21.2%
[6]; 336 h, 14 DAA
  pest or weed control at 280 g/ha: 10%
  pest or weed control at 560 g/ha: 10.5%
[6]; 504 h, 21 DAA
  pest or weed control at 280 g/ha: 7.5%
  pest or weed control at 560 g/ha: 8%

## COc1ccc(/C=N/OC(=O)COc2ccc(Cl)cc2Cl)cc1 [Compound A31]
[1]; 168 h, 7 DAA
  pest or weed control at 560 g/ha: 75%
[1]; 336 h, 14 DAA
  pest or weed control at 560 g/ha: 96%
[1]; 504 h, 21 DAA
  pest or weed control at 560 g/ha: 67.5%
[2]; 168 h, 7 DAA
  pest or weed control at 560 g/ha: 62.5%
[2]; 336 h, 14 DAA
  pest or weed control at 560 g/ha: 75%
[2]; 504 h, 21 DAA
  pest or weed control at 560 g/ha: 100%
[3]; 168 h, 7 DAA
  pest or weed control at 560 g/ha: 40%
[3]; 336 h, 14 DAA
  pest or weed control at 560 g/ha: 57.5%
[3]; 504 h, 21 DAA
  pest or weed control at 560 g/ha: 70%
[4]; 168 h, 7 DAA
  pest or weed control at 560 g/ha: 82.5%
[4]; 336 h, 14 DAA
  pest or weed control at 560 g/ha: 97%
[4]; 504 h, 21 DAA
  pest or weed control at 560 g/ha: 96%
[5]; 168 h, 7 DAA
  pest or weed control at 560 g/ha: 82.5%
[5]; 336 h, 14 DAA
  pest or weed control at 560 g/ha: 89.5%
[5]; 504 h, 21 DAA
  pest or weed control at 560 g/ha: 98.5%
[6]; 168 h, 7 DAA
  pest or weed control at 560 g/ha: 68.5%
[6]; 336 h, 14 DAA
  pest or weed control at 560 g/ha: 83%
[6]; 504 h, 21 DAA
  pest or weed control at 560 g/ha: 86.4%
